Changes are numbered by the printed parent chain. The source made the active and inactive calls. The rule behind the calls is not given here.

Experiment [1] relates to T1, Tyrosine-protein phosphatase non-receptor type 11 (Homo sapiens), Q06124 [F285S].
T1 sequence (whole entry): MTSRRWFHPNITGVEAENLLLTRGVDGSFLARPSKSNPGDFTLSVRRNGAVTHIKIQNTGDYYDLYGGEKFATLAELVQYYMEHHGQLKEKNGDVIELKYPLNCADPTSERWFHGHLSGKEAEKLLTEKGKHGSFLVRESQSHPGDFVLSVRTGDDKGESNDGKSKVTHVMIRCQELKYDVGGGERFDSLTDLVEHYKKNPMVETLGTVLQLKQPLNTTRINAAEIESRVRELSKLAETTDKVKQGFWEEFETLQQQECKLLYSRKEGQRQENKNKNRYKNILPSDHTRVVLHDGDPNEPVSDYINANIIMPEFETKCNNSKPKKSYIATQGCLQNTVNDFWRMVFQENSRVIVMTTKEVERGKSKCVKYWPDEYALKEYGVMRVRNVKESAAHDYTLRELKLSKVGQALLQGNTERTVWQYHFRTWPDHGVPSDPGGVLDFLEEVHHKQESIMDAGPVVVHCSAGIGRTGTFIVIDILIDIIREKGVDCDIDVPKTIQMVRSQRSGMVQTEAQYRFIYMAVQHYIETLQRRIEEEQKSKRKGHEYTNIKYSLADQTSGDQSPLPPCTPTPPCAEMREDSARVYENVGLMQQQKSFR
Briefly: (§1) Inhibition of SHP2 F285S mutant (1 to 525 residues) (unknown origin) expressed in Escherichia coli BL21(DE3) using DIFMUP as substrate preincubated for 30 mins followed by substrate addition by fluorescence assay.

Experiment [2] addresses Tyrosine-protein phosphatase non-receptor type 11 (Homo sapiens, UniProt Q06124, F285S). The experiment is described as §1.
In experiment [3] the test system is T2, Tyrosine-protein phosphatase non-receptor type 11 (Homo sapiens), Q06124 [F285S,T253M,Q257L].
T2 sequence (whole entry): T1 sequence (whole entry) with T253M, Q257L
Briefly: Inhibition of SHP2 F285S/T253M/Q257L mutant (1 to 525 residues) (unknown origin) expressed in Escherichia coli BL21(DE3) using DIFMUP as substrate preincubated for 30 mins followed by substrate addition by fluorescence assay.

For experiment [4], the target named is T3, Tyrosine-protein phosphatase non-receptor type 11 (Homo sapiens) (UniProt Q06124).
T3 sequence (whole entry): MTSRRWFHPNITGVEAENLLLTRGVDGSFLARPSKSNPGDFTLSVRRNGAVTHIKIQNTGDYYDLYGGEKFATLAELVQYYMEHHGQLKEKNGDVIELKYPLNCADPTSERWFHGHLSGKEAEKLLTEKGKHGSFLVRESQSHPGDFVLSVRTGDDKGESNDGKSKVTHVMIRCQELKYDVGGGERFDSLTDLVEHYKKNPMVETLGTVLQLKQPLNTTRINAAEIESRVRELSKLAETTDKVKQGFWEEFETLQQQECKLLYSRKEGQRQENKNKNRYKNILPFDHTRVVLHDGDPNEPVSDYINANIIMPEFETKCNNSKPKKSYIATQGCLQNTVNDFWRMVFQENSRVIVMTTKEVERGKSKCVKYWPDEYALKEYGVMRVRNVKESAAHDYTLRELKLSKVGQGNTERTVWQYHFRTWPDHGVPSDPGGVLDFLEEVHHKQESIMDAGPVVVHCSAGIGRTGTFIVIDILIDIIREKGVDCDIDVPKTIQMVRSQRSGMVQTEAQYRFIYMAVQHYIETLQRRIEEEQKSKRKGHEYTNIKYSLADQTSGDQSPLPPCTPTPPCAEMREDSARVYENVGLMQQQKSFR
Briefly: Inhibition of SHP2 PTP domain (1 to 525 residues) (unknown origin) expressed in Escherichia coli BL21(DE3) using DIFMUP as substrate preincubated for 30 mins followed by substrate addition by fluorescence assay.

The subject of experiment [5] is T1, Tyrosine-protein phosphatase non-receptor type 11 (Homo sapiens), Q06124 [F285S]. Nature of the experiment: Inhibition of SHP2 F285S mutant (1 to 525 residues) (unknown origin) expressed in Escherichia coli BL21(DE3) at up to 2 uM using DIFMUP as substrate preincubated for 30 mins followed by substrate addition by fluorescence assay.
Experiment [6] concerns MOLM-14. Nature of the experiment: Antiproliferative activity against human MOLM14 cells after 3 days by CellTiter-Glo luminescence assay. It is filed as functional, cell-based. To be noted: for IC50: MOLM-14, 72 h.
In experiment [7] the test system is A2058. Nature of the experiment: Antiproliferative activity against human A2058 cells harboring BRAF V600E mutation at up to 2 uM after 3 days by CellTiter-Glo luminescence assay. It is filed as functional, cell-based. For orientation: In ATP-based viability assays light output follows the ATP content of the culture.
The target in experiment [8] is T3, Tyrosine-protein phosphatase non-receptor type 11 (Homo sapiens). Briefly: Inhibition of wild-type SHP2 (1 to 525 residues) (unknown origin) expressed in Escherichia coli BL21(DE3) using DIFMUP as substrate preincubated for 30 mins followed by substrate addition by fluorescence assay.
Experiment [9] has the same target. Briefly: Inhibition of SHP2 in human MOLM14 cells assessed as reduction in phospho-Erk levels at up to 400 uM after 2 hrs by Western blot analysis. It is filed as cell-based. (Immunoblotting shows a protein as a band on a membrane.)

As to `COc1ccc2c(c1)sc1nc(O)c(Cc3ccccc3)c(=O)n12`, the results for the inhibition result in experiment [1] and in experiment [5] were “Dose-dependent effect” and 40%, respectively. For the same molecule, inhibition in experiment [2] was half-maximal at 10 µM (IC50). The inhibition result in [3] and in experiment [4] was “inactive” each time.

`CC1(N)CCN(c2cnc(-c3cccc(Cl)c3Cl)c(N)n2)CC1`: the half-maximal inhibitory concentration (IC50) in experiment [6] is 0.9 µM. Also, the outcome in [7] was inactive.

For the molecule `COc1ccc2c(c1)sc1nc(Cl)c(Cc3ccccc3)c(=O)n12`, the inhibition entry in [5] is “inactive”. The result in experiment [6] and in experiment [7] was inactive.

As to `NCc1ccc2c(c1)sc1nc(O)c(Cc3ccccc3)c(=O)n12`, in [7], the result was inactive.

On to `O=c1c(Cc2ccccc2)c(O)nc2sc3cc(Cl)ccc3n12`, for which the inhibition in [5] was 60%. Moreover, in experiment [8], the inhibition entry is “Active”. Half-maximal inhibition in experiment [6] (IC50) was put at 85 µM. Besides, the inhibition entry in experiment [9] was “inactive”. Also, the outcome in experiment [7] was inactive.

As usually defined, the inhibition is the change of the read-out against control, counted positive when it falls. The term IC50 denotes the concentration at which inhibition is half-maximal. A lower IC50 goes with greater potency.

(Values after ChEMBL document CHEMBL4177641, “Identification of an allosteric benzothiazolopyrimidone inhibitor of the oncogenic protein tyrosine phosphatase SHP2” (Bioorg Med Chem, 2017).)
